Test results taken from ChEMBL document CHEMBL1201862, “PubChem BioAssay data set” (2004).
Active and inactive are the calls of the source.

Legend:
[1] = target: Glyceraldehyde-3-phosphate dehydrogenase (Homo sapiens, UniProt P04406)
[2] = cytotoxicity in HEK-293T cells, dose response, cytotoxicity control for BCR NF-kB inhibitor project, luminescence, B-cell screen hits (AID 489021); format: functional, cell-based;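 note: HEK-293T cells carrying an NF-kB luciferase reporter; cells exposed to compound for about 14 hours before viability readout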
[3] = off-target signal loss in HeLa-CEM21 co-culture – HeLa F-luc CTL cells, cherry-picked, counter-screen for HIV-1 Env fusion inhibitor project, dose response (AID 652040); format: functional, cell-based;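 note: potency for signal decrease marking cytotoxic or nonspecific inhibition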
[4] = inhibitors of clade B AD8 Env fusion, dose response, cell-based, cherry-pick (AID 652062); format: functional;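 note: luciferase signal from cell-cell fusion driven by HIV-1 clade B AD8 Env; potency is for inhibitors of fusion seen as a drop in luminescence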
[5] = inhibitors of HIV Env-driven cell fusion, dose response, cherry-pick (AID 652057); format: functional, cell-based
[6] = ZM109 Env clade C HIV-1 fusion inhibitors, dose response, HeLa effector, CEM target cells, luciferase, cherry-pick (AID 652058); format: functional, cell-based
[7] = target: T1, Calpain-2 catalytic subunit (Sus scrofa, UniProt P43367); experiment: pig calpain II inhibitor potency, dose response, biochemical, fluorogenic peptide substrate (AID 1420); format: functional
T1 sequence (P43367 whole entry): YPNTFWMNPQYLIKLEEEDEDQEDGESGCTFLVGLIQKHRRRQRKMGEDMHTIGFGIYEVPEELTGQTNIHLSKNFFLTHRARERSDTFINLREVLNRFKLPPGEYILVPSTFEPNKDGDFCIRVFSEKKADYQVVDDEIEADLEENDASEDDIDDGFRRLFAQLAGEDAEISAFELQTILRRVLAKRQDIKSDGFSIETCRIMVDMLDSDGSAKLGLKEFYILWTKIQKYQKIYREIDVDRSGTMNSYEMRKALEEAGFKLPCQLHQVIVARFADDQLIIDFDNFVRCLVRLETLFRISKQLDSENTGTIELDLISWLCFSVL

[8] = cytotoxicity toward DRD oncogenic fibroblasts, dose response, cell-based, non-viral oncogenic, luminescence (AID 1934); format: functional; conditions: Homo sapiens
BJ [9] = experiment: cells; format: functional, cell-based; conditions: Homo sapiens
[10] = target: T2, Heat shock factor protein 1 (Mus musculus, UniProt P38532); experiment: HSF1 potentiators in luciferase reporter cells, confirmation, cell-based, NIH3T3, luminescence, dose retest (AID 435004); format: functional;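 note: stress induced by proteasome inhibitor MG132 added 30 min after compound; luciferase reporter driven by HSF1 response element in NIH3T3 cells; actives raise luminescence as potentiators of the MG132 stress response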
T2 sequence (P38532 whole entry): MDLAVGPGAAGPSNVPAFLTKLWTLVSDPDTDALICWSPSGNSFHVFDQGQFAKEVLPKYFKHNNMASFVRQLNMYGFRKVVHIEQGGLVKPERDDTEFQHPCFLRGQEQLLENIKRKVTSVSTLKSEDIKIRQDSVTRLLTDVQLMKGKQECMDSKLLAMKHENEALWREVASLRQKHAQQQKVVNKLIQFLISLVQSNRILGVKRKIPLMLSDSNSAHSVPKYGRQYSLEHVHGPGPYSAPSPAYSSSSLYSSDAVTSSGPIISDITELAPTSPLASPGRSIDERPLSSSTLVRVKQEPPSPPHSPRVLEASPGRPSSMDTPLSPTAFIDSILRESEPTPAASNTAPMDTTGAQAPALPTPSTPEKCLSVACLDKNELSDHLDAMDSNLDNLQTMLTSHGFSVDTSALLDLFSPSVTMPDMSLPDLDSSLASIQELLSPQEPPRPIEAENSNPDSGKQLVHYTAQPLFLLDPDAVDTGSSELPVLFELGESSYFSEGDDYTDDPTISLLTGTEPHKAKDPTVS

BJ [11] = experiment: cytotoxicity toward BJ-TERT fibroblasts, dose response, cell-based, RAS-independent, luminescence (AID 1933); format: functional; conditions: Homo sapiens
BJ [12] = experiment: cytotoxicity toward BJ-TERT-LT-ST fibroblasts, dose response, cell-based, RAS-independent, luminescence (AID 1935); format: functional; conditions: Homo sapiens;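 note: BJ fibroblasts immortalized with TERT plus LT and ST oncogenes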
[13] = target: T3, High affinity choline transporter 1 (Homo sapiens, UniProt Q9GZV3); experiment: CHT inhibitors, dose response, cell-based, 5-point CRC, membrane potential dye (AID 504840); format: functional
T3 sequence (Q9GZV3 whole entry): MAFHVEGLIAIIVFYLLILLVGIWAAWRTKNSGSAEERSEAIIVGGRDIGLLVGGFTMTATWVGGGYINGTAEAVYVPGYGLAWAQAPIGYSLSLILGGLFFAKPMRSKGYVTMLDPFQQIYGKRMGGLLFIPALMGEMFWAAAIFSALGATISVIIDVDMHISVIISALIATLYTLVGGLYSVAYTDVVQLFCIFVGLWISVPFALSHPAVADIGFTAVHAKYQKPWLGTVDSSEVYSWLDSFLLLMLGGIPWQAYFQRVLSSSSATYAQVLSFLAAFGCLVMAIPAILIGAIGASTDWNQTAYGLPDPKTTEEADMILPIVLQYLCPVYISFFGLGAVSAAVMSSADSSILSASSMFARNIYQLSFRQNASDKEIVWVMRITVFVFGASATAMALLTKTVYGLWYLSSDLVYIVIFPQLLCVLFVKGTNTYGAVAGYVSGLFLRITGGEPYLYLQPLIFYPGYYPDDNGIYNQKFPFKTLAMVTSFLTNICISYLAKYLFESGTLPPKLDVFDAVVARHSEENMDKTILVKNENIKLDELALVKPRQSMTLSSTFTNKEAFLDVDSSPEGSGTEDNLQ

[14] = target: T4, Corticotropin-releasing factor receptor 2/Corticotropin-releasing factor-binding protein (Homo sapiens, UniProt P24387+Q13324); experiment: activators of CRF receptor 2 with binding protein – uHTS hits, confirmation (AID 602473); format: functional; conditions: read-out: EC50_Mean
T4 sequence (Q13324 whole entry): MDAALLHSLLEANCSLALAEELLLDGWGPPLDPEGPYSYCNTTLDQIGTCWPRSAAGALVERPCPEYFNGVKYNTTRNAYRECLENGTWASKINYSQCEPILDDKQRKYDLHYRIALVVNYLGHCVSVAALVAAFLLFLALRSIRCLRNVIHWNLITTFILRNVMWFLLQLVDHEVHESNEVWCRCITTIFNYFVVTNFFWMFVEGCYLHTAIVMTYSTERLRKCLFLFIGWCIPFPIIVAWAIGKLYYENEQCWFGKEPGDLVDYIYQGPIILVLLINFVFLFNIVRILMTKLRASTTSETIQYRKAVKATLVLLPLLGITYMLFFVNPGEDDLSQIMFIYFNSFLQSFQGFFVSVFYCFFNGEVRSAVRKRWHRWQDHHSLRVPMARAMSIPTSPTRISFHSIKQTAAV
T4 sequence (P24387 whole entry): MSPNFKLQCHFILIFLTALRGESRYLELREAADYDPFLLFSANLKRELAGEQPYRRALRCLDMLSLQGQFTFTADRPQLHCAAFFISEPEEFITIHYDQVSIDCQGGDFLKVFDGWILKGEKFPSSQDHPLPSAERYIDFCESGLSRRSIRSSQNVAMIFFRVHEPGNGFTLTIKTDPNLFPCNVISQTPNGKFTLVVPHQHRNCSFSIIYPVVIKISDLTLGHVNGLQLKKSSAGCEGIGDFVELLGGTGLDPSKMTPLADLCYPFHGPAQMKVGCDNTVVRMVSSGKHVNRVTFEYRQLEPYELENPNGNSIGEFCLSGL

[15] = target: T5, Ubiquitin-conjugating enzyme E2 N (Homo sapiens, UniProt P61088); format: functional;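 note: Dose-response confirmation in a TR-FRET assay detecting UBC13-driven polyubiquitin chain formation, inhibition measured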
T5 sequence (P61088 whole entry): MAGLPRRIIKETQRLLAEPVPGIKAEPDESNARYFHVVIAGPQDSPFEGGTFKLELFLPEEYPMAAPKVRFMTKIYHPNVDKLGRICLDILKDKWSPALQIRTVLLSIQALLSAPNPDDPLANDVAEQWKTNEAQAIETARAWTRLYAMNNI

H9c2 = experiment: cells; format: functional, cell-based; conditions: Rattus norvegicus, H9c2, Myocardium;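 note: confirmatory concentration-response retest of ultra-high-throughput screening hits for modulation of myocardial damage; cell death induced by hydrogen peroxide oxidative stress; compound pretreatment for 60 min then peroxide exposure for 2 h; potency is for protecting the cells against peroxide damage rather than for killing them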
P388 = experiment: cells; format: functional; conditions: Mus musculus
P388/ADR = experiment: cells; format: functional; conditions: Mus musculus
SN12K1 = experiment: cells; format: functional; conditions: Homo sapiens
[16] = P. falciparum Dd2 growth inhibitors, dose response, SYBR Green, cherry-picked samples (AID 1159567); format: functional, cell-based
INS1 = experiment: beta cell apoptosis inhibitors, cytokine rescue, dose response, luminescence, retest (AID 449756); format: functional, cell-based; conditions: Rattus norvegicus;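 note: cell death triggered by IL-1 beta plus TNF-alpha plus IFN-gamma mixture; protective hits raise ATP signal compared with cytokine alone wells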

Chain of Glyceraldehyde-3-phosphate dehydrogenase (P04406 whole entry): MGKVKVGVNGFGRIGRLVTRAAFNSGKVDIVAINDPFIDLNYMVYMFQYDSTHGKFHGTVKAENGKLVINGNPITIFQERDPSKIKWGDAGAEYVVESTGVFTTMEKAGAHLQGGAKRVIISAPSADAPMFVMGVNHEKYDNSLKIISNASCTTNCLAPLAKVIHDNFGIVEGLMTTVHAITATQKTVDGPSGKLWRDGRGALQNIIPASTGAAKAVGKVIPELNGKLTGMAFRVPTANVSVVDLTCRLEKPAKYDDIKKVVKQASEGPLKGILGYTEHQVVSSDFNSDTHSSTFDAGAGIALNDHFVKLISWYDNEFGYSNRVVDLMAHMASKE

Cc1cccc(N2C(=O)C(Cl)=C(N3CCN(c4ncccn4)CC3)C2=O)c1
IC50 [1]: > 50 µM (inconclusive)

O=C(CCCN1C(=O)/C(=C/c2ccccc2Cl)SC1=S)NNC(=O)c1ccncc1
IC50 [2]: > 80 µM (inactive)

Nc1c(Cl)cc2c(c1Oc1ccccc1)C(=O)c1ccccc1C2=O
AC50 [3]: 11.2 µM (active) | AC50 [4]: 16.4 µM (active) | AC50 [5]: 11.2 µM (active) | AC50 [6]: 14.3 µM (active) | IC50 [7]: 2.46 µM (not active)

Cc1nn(C(C)(C)C)c(OC(=O)c2ccc(Br)o2)c1Sc1ccccc1
IC50 [2]: > 80 µM (inactive)

CC(C)Nc1nc(Cl)nc(N(C#N)CN2C(=O)c3ccccc3C2=O)n1
EC50 [8]: 17.9 µM (active) | EC50 (BJ [9]): 16.2 µM (active) | EC50 [10]: 27.9 µM (active) | EC50 (BJ [11]): 10.1 µM (active) | EC50 (BJ [12]): > 150 µM (inconclusive) | IC50 [13]: 1.58 µM (active)

CS(=O)(=O)N(Cc1ccc(Cl)cc1)c1ccc(C(=O)NCCSc2ccccn2)cc1
EC50 [14]: > 53 µM (inactive) | AC50 [3]: 18.6 µM (active) | AC50 [4]: 6.23 µM (active) | AC50 [5]: 5.5 µM (active) | AC50 [6]: 52.2 µM (active)

C[C@@H]1CN(C2=C(Cl)C(=O)N(c3cccc(C(F)(F)F)c3)C2=O)CCN1
IC50 [1]: > 50 µM (inconclusive)

O=C(NCC1CCN(Cc2ccc(F)cc2)CC1)C1CCCN(c2ncnc3c2nc2n3CCCCC2)C1 (stereo unspecified)
IC50 [15]: > 20 µM (inactive)

COc1ccc(NC(=O)c2cc(-c3ccccn3)nc3ccccc23)cc1S(=O)(=O)N(C)C
IC50 (H9c2): > 79 µM (inactive) | IC50 [2]: > 80 µM (inactive)

C[C@@]12C(=O)N(Cc3ccc(F)cc3)CC(=O)N1[C@H]1c3cc(Cl)ccc3OC[C@@H]1[C@@H]2c1ccccc1
AC50 [3]: 7.95 µM (active) | AC50 [5]: 5.93 µM (active) | AC50 [6]: 8.91 µM (active)

COCCn1nnnc1CN(CCc1ccccc1)Cc1cc2cc(OC)ccc2nc1O
IC50 (H9c2): 16.1 µM (active) | AC50 [3]: 26.9 µM (active) | AC50 [4]: 1.48 µM (active) | AC50 [5]: 5.69 µM (active) | AC50 [6]: 5.58 µM (active)

CN(C)CCNC(=O)c1cccc2nc(-c3ccccc3)oc12
GI50 (P388): 4.34 µM (inactive) | GI50 (P388/ADR): 8.63 µM (inactive) | GI50 (SN12K1): 22.8 µM (inactive)

COc1ccc(/C=N\NC(=O)c2c(C)nc3ccc(Br)cn23)cc1
IC50 (H9c2): 12.1 µM (active) | EC50 [8]: 2.9 µM (inconclusive) | EC50 (BJ [9]): 2.71 µM (active) | EC50 (BJ [11]): 3.13 µM (active) | EC50 (BJ [12]): 2.67 µM (inconclusive)

Cc1ccc(C(=O)Nc2ncn(C3CC(O)C(CO)O3)c(=O)n2)cc1 (stereo unspecified)
GI50 (P388): 5.26 µM (inactive) | GI50 (P388/ADR): 3.69 µM (inactive) | GI50 (SN12K1): > 100 µM (inactive)

CC1(C)CC2(CC(C)(C)N1O)NC(=O)OC2=O
GI50 (P388): 60.7 µM (inactive) | GI50 (P388/ADR): 4.47 µM (inactive) | GI50 (SN12K1): > 100 µM (inactive)

CC[C@@]1(O)C[C@H](OC2CC(N(C)C)C(OC3CC(O)C(OC4CC(O)C(O)C(C)O4)C(C)O3)C(C)O2)c2c(cc3c(c2O)C(=O)c2c(O)ccc(O)c2C3=O)[C@H]1C(=O)OC (stereo partly specified)
GI50 (P388): 0.00693 µM (active) | GI50 (P388/ADR): 0.713 µM (active) | GI50 (SN12K1): 0.00695 µM (active)

CC(=O)OC1CC2(O)C(CCC3(C)C(c4ccc(=O)oc4)CCC32O)C2(C)CCC(O)C=C12 (stereo unspecified)
GI50 (P388): 4.37 µM (inactive) | GI50 (P388/ADR): 7.26 µM (inactive) | GI50 (SN12K1): 0.0196 µM (active)

COc1ccccc1/C=N/N1C(=O)C(CC(=O)Nc2ccc([N+](=O)[O-])cc2OC)S/C1=N\c1cccc(C)c1C (stereo unspecified)
EC50 [8]: 4.24 µM (active) | EC50 (BJ [9]): 22.9 µM (active) | EC50 (BJ [11]): 10.6 µM (active) | EC50 (BJ [12]): 14.9 µM (inconclusive)

CC(C)(O)C#Cc1cccc(-c2nc(C(=O)N[C@@H]3CCN(Cc4ccccc4)C3)cc3c2[C@H](CCO)N([S+]([O-])C(C)(C)C)C3)c1 (stereo partly specified)
AC50 [16]: 5.86 µM (active)

N=c1c2c(n(Cc3ccc(Cl)cc3Cl)c3c1CCC3)CCCC2
AC50 (INS1): 3.58 µM (active) | IC50 [2]: > 80 µM (inactive)

CN(CO)c1nc(N(C)CO)nc(N(C)CO)n1 [TRIMELAMOL]
GI50 (P388): 6.15 µM (inactive) | GI50 (P388/ADR): 16.3 µM (inactive) | GI50 (SN12K1): 4.98 µM (inactive)
